According to patent US5962516A, “Immunosuppressive compounds and methods” (priority 1999, dated 1999):
Counter-ions that a name gives are not always drawn.

Key:
[1] = system: IL-1β action on murine thymocytes; assay: Inhibition of IL-1 action (IL-1 assay): suppression of IL-1β + PHA stimulated murine thymocyte proliferation; format: cell-based, mouse (C3H/HeN); details: 50% suppression of proliferation, 72 h culture
Experimental: The ability of the above compounds to suppress the cell-proliferative effect of IL-1β in vitro (O'Gara, 1990) was examined as described in Example 11. Mouse thymocytes in culture were stimulated with IL-1β in the presence of phytohemagglutinin (PHA) and increasing concentrations of triptolide (control) and triptolide derivatives. The cells were cultured for 72 hours, and during the last 18 hours, incubated with tritiated thymidine. DNA synthesis was assessed by measuring incorporation of radiolabeled thymidine. The results expressed in terms of IC50 (concentration effective to cause 50% suppression of proliferation) are shown in Table 1.
C3H/HeN mouse thymocytes were prepared and the action of IL-1 together with PHA, which stimulate proliferation of thymocyte, was measured using standard techniques (O'Gara, 1990; Mishell, 1980). Three- to six-week old C3H/HeN male mice (Simonson Laboratory, Gilroy, Calif.) were sacrificed by CO2 inhalation. Thymi were removed, separated from adherent non-thymic tissue, homogenized in Hank's balanced salt solution (HBSS, Gibco) using a glass homogenizer, and centrifuged at 200×g for 10 minutes at 15° C. Following an additional wash in HBSS, the thymocytes were resuspended in RPMI 1640 medium containing 50 uM 2-mercaptoethanol, 2 mM glutamine, 1 mM sodium pyruvate, non-essential amino acids 100 U/ml penicillin, 100 μg/ml streptomycin, and 10% heat-inactivated fetal bovine serum.
Cells were cultured in round-bottom 96 well microtiter tissue culture plates, 6×10^5 cells per well, in a volume of 100 μl. Recombinant human IL-1β (R & D Systems #201-LB) together with Phytohemagglutinin P (PHA, Pharmacia) were added to the cells in volume of 25 μl per well to achieve a final concentration of 0.08 ng/ml and 10 μg/ml, respectively. Samples were dissolved in DMSO (10 mg/ml), then diluted in culture medium. Twenty five microliters of the test sample was added to each well to achieve the final compound concentrations for each experiment. Cells with PHA together with IL-1 served as controls. The total volume for each well was 150 μl.
Plates were incubated at 37° C. in a 5% CO2 incubator for 72 hours. Fifty microliters of culture medium containing 0.5 μCi (^3 H)-thymidine (Amersham, 49 Ci/mmol) was added to each well prior to the last 18 hours of incubation. Cells were then harvested and counted. The results were reported as counts per minute (cpm) per 6×10^5 cells.
The following formula was used to calculate the percent of suppression of IL-1 activity, and IC50 (concentration of sample yielding 50% suppression of proliferation) was used to indicate the suppressive activity of the sample.
% suppression of IL-1 activity=(1-sample cpm/(IL-1+PHA control

[2] = system: mixed lymphocyte reaction (spleen cells from female C57BL/6 mice, stimulated with Balb/C spleen cells); assay: Mixed lymphocyte reaction (MLR) assay; format: cell-based, mouse; details: 50% suppression of proliferation
Experimental: Inhibition of cell proliferation by the subject compounds was assayed in the mixed lymphocyte reaction (MLR) (Bradley, 1980; Mishell, 1980). Spleen cells from female C57BL/6 mice, the "responder" cells, were prepared and co-cultured alone or in the presence of varying concentrations of the test compounds, with irradiated spleen cells prepared from female Balb/C mice, the "stimulator" cells. Prior irradiation of the stimulator cells rendered them unable to proliferate. A sample of the responder cells was also irradiated for use as a control. The non-irradiated responder cells proliferate in the presence of the allogenic stimulator cells. After a 78-hour incubation, tritiated thymidine was added to the mixed cell cultures, and incorporation of the labeled nucleotide into DNA was measured as an index of cell proliferation.
In this study, the responder cells (R) were spleen cells from female C57BL16 mice, and the stimulator cells (S) were spleen cells from female Balb/C mice 6 to 8 weeks of age (Jackson, Bar Harbor, Me.). The spleens were aseptically removed from the mice and placed into 10 ml of cold HBSS in a sterile petri dish. The spleen was cut in half and gently pressed between the frosted ends of 2 sterile microslides. The cell suspension was then filtered through sterile nylon mesh (Nytex, Tetco #HD-3-85) into a 15 ml conical polypropylene centrifuge tube and centrifuged at 200×g for 10 minutes in a Beckman GPR tabletop centrifuge (GH-3.7 Rotor). Following an additional wash in HBSS, the spleen cells were resuspended in RPMI 1640 medium (Gibco) containing 50 uM 2-mercaptoethanol, 2 mM glutamine, 100 U/ml penicillin, 100 μg/ml streptomycin and 10% heat-inactivated fetal bovine serum.
The stimulator cells (S) and part of the responder cells (R) were diluted at 10×10^6 cells/ml and irradiated at 20 cGy with a Cesium Irradiator (Department of Radiation Oncology, Stanford University, California) to inhibit proliferation. The irradiated cells were washed once to remove any toxic free radicals and their products resulting from irradiation. The responder cells (R), irradiated stimulator cells (Sx) and irradiated responder cell (Rx) were all diluted to 4×10^6 cells/ml.
In the assay, 4×10^5 cells of R were cocultured with 4×10^5 cells of Sx in 200 μl of medium in round bottom 96 well tissue culture plates. Fifty micro-liters of test samples at various concentrations were added to the cells. The wells receiving no test samples would get the maximum proliferation. Several controls were used in the assay. The irradiated responder cells (Rx) were also added to the responder cells with and without the test samples. Rx or Sx alone were checked to make sure no proliferation occurred after irradiation. The spontaneous proliferation of R was also measured.
The culture plates were incubated at 37° C. in a 5% CO2 incubator for four days. The cells were labelled with 1 μCi of (^3 H)-thymidine (Amersham, 49 Ci/mmol) in 20 μl of medium for the last 18 hours. Cells were then harvested and counted. The results were reported as counts per minute (cpm) per well. Percent of suppression and IC50 (concentration of sample producing 50% suppression of proliferation) were used to indicate the suppressive activity of the sample. Sample cpm was calculated as (R+Sx+sample)cpm-(R+Rx+sample)cpm; control cpm was calculated as (R+Sx)cpm-(R+Rx)cpm. Percent suppression of MLR activity was calculated as (1-sample cpm/control cpm)×100. IC50 was determined from percent suppression to indicate the suppressive activity of the sample.

CC(C)C12OC1C1OC13C1(C)CCC4=C(COC4=O)C1CC1OC13C2OC(=O)CCC(=O)O (stereo not shown) [YM-276, Triptolide Succinate Lysine Salt]
IL-1 Assay IC50 [1]: 0.144 µg/mL
IC50 ([1]; read-out: IL-1 Assay IC50): 238 nM
MLR Assay IC50 [2]: 0.063 µg/mL
IC50 ([2]; read-out: MLR Assay IC50): 104 nM
